Source: patent publication US20070191291A1, “Compound antibacterial drugs comprising n-acetyl-d-glucosamine” (priority 2003, published 2007)
Like-named read-outs stand apart in the source and are kept apart here.

Assays:
Bacillus cereus = test: Test Example 2: preventing formation of bacterial CGC in vitro (K-B method); format: cell-based
Method: (§1) E. coli (No. 33310, purchased from Chengdu Institute of Biological Products, the Ministry of Public Health) was used in the tests. Grid design was performed by using antibiotic with different concentrations and N-acetyl-D-glucosamine having an amount of from 10 mg to 300 mg. Streak plates were conducted separately, and K-B method was employed for drugs. Colonies at marginal part of drug inhibition zone were picked and were observed under microscope. If cell length was more than 50 μm and cell number was more than 5 in each visual field, it was deemed as CGC positive and was marked with “+”; while if cell length was not greater than 50 μm and cell number was within the range from 0 to 4 in each visual field, it was deemed as CGC negative and was marked with “−”. At this time, the ratio of two substances was called “effective ratio”.
(§2) Effects tests of compound preparation comprising N-acetyl-D-glucosamine and antibiotics for preventing the formation of bacterial CGC in vitro.
(§3) The tests were carried out in vitro, wherein gram-negative amphimicrodes, gram-negative anaerobes and gram-positive aerobes were separately coated on streak plates, test drugs and control drugs were separately dissolved with same volume of sterile water for injection, 10 μl of each drug was used for preparing drug-sensitive paper, K-B method was employed in the tests of drugs, and the inhibition situations of CGC formation were observed.

Bacillus proteus = test: as above; format: cell-based
Method: as §1, §2, §3

Bacteroides fragilis = test: as above; format: cell-based
Method: as §1, §2, §3

Citro Bacter = test: as above; format: cell-based
Method: as §1, §2, §3

Diphtheroid bacillus = test: as above; format: cell-based
Method: as §1, §2, §3

E. coli = test: as above; format: cell-based
Method: as §1, §2, §3

Klebsiella = test: as above; format: cell-based
Method: as §1, §2, §3

Listeria = test: as above; format: cell-based
Method: as §1, §2, §3

Nucleic Acid Bacter = test: as above; format: cell-based
Method: as §1, §2, §3

[1] = test system: rats infected and not infected by Bacillus typhi murium; format: in vivo, Wistar rats; settings: rats infected or not by Bacillus typhi murium, consecutive week, 15 rats per group
[2] = test system: irritable bowel syndrome (IBS) caused by bacterial CGC; test: Test Example 5: preventing irritable bowel syndrome (IBS) caused by bacterial CGC; format: in vivo, rats; settings: for CGCs in the rat stools after one week of drug withdrawal / CGCs in the stools of the rats: rats, effective dosage for consecutive 10 days, 30 rats per group; for CGCs in the stools of the rats: stools observed during administration and within 1 week after drug withdrawal
Excerpt: On this basis, the rats were subjected to stimulations such as electric stimulation, intragastric administration with fructus zanthoxyli water, cold, constraint etc. in order to induce IBS, and the incidence rates of IBS of two groups were observed.

[3] = compound injection 100 mg N-acetyl-D-glucosamine + 300 mg kanamycin, control kanamycin same dose
[4] = first of three values given respectively: electric stimulation
[5] = second of three values given respectively: intragastric administration with fructus zanthoxyli water
[6] = third of three values given respectively: cold, constraint etc.
[7] = compound preparation N-acetyl-D-glucosamine (100 mg) and lincomycin (400 mg), control lincomycin (400 mg)
[8] = compound preparation N-acetyl-D-glucosamine (50 mg) and tetracycline (150 mg), control tetracycline (150 mg)

NC[C@H]1O[C@H](O[C@H]2[C@H](O)[C@@H](O[C@H]3O[C@H](CO)[C@@H](O)[C@H](N)[C@H]3O)[C@H](N)C[C@@H]2N)[C@H](O)[C@@H](O)[C@@H]1O [Kanamycin, kanamycin]
CGC formation (Bacillus cereus; [3]): + (If cell length was more than 50 μm and cell number was more than 5 in each visual field, it was deemed as CGC positive and was marked with “+”)
CGC formation (Bacillus proteus; [3]): + (If cell length was more than 50 μm and cell number was more than 5 in each visual field, it was deemed as CGC positive and was marked with “+”)
CGC formation (Bacteroides fragilis; [3]): + (If cell length was more than 50 μm and cell number was more than 5 in each visual field, it was deemed as CGC positive and was marked with “+”)
CGC formation (Citro Bacter; [3]): + (If cell length was more than 50 μm and cell number was more than 5 in each visual field, it was deemed as CGC positive and was marked with “+”)
CGC formation (Diphtheroid bacillus; [3]): + (If cell length was more than 50 μm and cell number was more than 5 in each visual field, it was deemed as CGC positive and was marked with “+”)
CGC formation (E. coli; [3]): + (If cell length was more than 50 μm and cell number was more than 5 in each visual field, it was deemed as CGC positive and was marked with “+”)
CGC formation (Klebsiella; [3]): + (If cell length was more than 50 μm and cell number was more than 5 in each visual field, it was deemed as CGC positive and was marked with “+”)
CGC formation (Listeria; [3]): + (If cell length was more than 50 μm and cell number was more than 5 in each visual field, it was deemed as CGC positive and was marked with “+”)
CGC formation (Nucleic Acid Bacter; [3]): + (If cell length was more than 50 μm and cell number was more than 5 in each visual field, it was deemed as CGC positive and was marked with “+”)
positive rates of stool CGC and intestinal mucosa CGC ([1]; N-acetyl-D-glucosamine (100 mg)+kanamycin (200 mg) vs only kanamycin): 100%
incidence rate of IBS [2, 4]: 33%
incidence rate of IBS [2, 5]: 33%
incidence rate of IBS [2, 6]: 33%

CCC[C@@H]1C[C@@H](C(=O)N[C@@H]([C@H]2O[C@H](SC)[C@H](O)[C@@H](O)[C@H]2O)[C@@H](C)O)N(C)C1 [Lincomycin, lincomycin]
CGC formation (Bacillus cereus; [7]): + (If cell length was more than 50 μm and cell number was more than 5 in each visual field, it was deemed as CGC positive and was marked with “+”)
CGC formation (Bacillus proteus; [7]): + (If cell length was more than 50 μm and cell number was more than 5 in each visual field, it was deemed as CGC positive and was marked with “+”)
CGC formation (Bacteroides fragilis; [7]): + (If cell length was more than 50 μm and cell number was more than 5 in each visual field, it was deemed as CGC positive and was marked with “+”)
CGC formation (Citro Bacter; [7]): + (If cell length was more than 50 μm and cell number was more than 5 in each visual field, it was deemed as CGC positive and was marked with “+”)
CGC formation (Diphtheroid bacillus; [7]): + (If cell length was more than 50 μm and cell number was more than 5 in each visual field, it was deemed as CGC positive and was marked with “+”)
CGC formation (E. coli; [7]): + (If cell length was more than 50 μm and cell number was more than 5 in each visual field, it was deemed as CGC positive and was marked with “+”)
CGC formation (Klebsiella; [7]): + (If cell length was more than 50 μm and cell number was more than 5 in each visual field, it was deemed as CGC positive and was marked with “+”)
CGC formation (Listeria; [7]): + (If cell length was more than 50 μm and cell number was more than 5 in each visual field, it was deemed as CGC positive and was marked with “+”)
CGC formation (Nucleic Acid Bacter; [7]): + (If cell length was more than 50 μm and cell number was more than 5 in each visual field, it was deemed as CGC positive and was marked with “+”)
positive rates of stool CGC and intestinal mucosa CGC ([1]; N-acetyl-D-glucosamine (100 mg)+lincomycin (400 mg) vs only lincomycin): 100%
incidence rate of IBS [2, 4]: 33%
CGCs in the rat stools after one week of drug withdrawal [2]: still present
CGCs in the stools of the rats [2]: a large amount of CGCs appeared
incidence rate of IBS [2, 5]: 33%
incidence rate of IBS [2, 6]: 33%

CN(C)C1C(O)=C(C(N)=O)C(=O)C2(O)C(O)=C3C(=O)c4c(O)cccc4C(C)(O)C3CC12 (stereo not shown) [Tetracyclin, tetracycline]
CGC formation (Bacillus cereus; [8]): + (If cell length was more than 50 μm and cell number was more than 5 in each visual field, it was deemed as CGC positive and was marked with “+”)
CGC formation (Bacillus proteus; [8]): + (If cell length was more than 50 μm and cell number was more than 5 in each visual field, it was deemed as CGC positive and was marked with “+”)
CGC formation (Bacteroides fragilis; [8]): + (If cell length was more than 50 μm and cell number was more than 5 in each visual field, it was deemed as CGC positive and was marked with “+”)
CGC formation (Citro Bacter; [8]): + (If cell length was more than 50 μm and cell number was more than 5 in each visual field, it was deemed as CGC positive and was marked with “+”)
CGC formation (Diphtheroid bacillus; [8]): + (If cell length was more than 50 μm and cell number was more than 5 in each visual field, it was deemed as CGC positive and was marked with “+”)
CGC formation (E. coli; [8]): + (If cell length was more than 50 μm and cell number was more than 5 in each visual field, it was deemed as CGC positive and was marked with “+”)
CGC formation (Klebsiella; [8]): + (If cell length was more than 50 μm and cell number was more than 5 in each visual field, it was deemed as CGC positive and was marked with “+”)
CGC formation (Listeria; [8]): + (If cell length was more than 50 μm and cell number was more than 5 in each visual field, it was deemed as CGC positive and was marked with “+”)
CGC formation (Nucleic Acid Bacter; [8]): + (If cell length was more than 50 μm and cell number was more than 5 in each visual field, it was deemed as CGC positive and was marked with “+”)
positive rates of stool CGC and intestinal mucosa CGC ([1]; N-acetyl-D-glucosamine (150 mg)+tetracycline (150 mg) vs only tetracycline): 100%
incidence rate of IBS [2, 4]: 33%
CGCs in the rat stools after one week of drug withdrawal [2]: still present
CGCs in the stools of the rats [2]: a large amount of CGCs appeared
incidence rate of IBS [2, 5]: 33%
incidence rate of IBS [2, 6]: 33%
